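These data come from cells grown in 96-well plates and exposed to compound for 48 hours at five concentrations. GI50 is the concentration that inhibits growth by half.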 Calls of active or inactive are those of the source. Cut-off read from the data, not from the text of the source: active = GI50 up to about 1.1 µM and inactive = higher.
What was measured:
Assay in all cases: NCI-60 cell line screen, 48 h
[1] = tested on: NCI-H522
[2] = tested on: IGROV-1
[3] = tested on: SF-268
[4] = tested on: SK-MEL-2
[5] = tested on: RXF 393
[6] = tested on: SF-539
[7] = tested on: CAKI-1
[8] = tested on: NCI/ADR-RES
[9] = tested on: M14
[10] = tested on: HL-60
[11] = tested on: PC-3
[12] = tested on: MOLT-4
[13] = tested on: T47D
[14] = tested on: 786-0
[15] = tested on: K562
[16] = tested on: OVCAR-8
[17] = tested on: RPMI-8226
[18] = tested on: UACC-257
[19] = tested on: A549
[20] = tested on: HOP-92
[21] = tested on: SF-295
[22] = tested on: MDA-MB-435
[23] = tested on: COLO 205
[24] = tested on: SNB-19
[25] = tested on: SN12C
[26] = tested on: SK-MEL-5
[27] = tested on: DU-145
[28] = tested on: Hs-578T
[29] = tested on: HCT-116
[30] = tested on: NCI-H460
[31] = tested on: LOX IMVI
[32] = tested on: MCF7
[33] = tested on: EKVX
[34] = tested on: UO-31
[35] = tested on: UACC-62
[36] = tested on: TK-10
[37] = tested on: CCRF-CEM
[38] = tested on: HCT-15
[39] = tested on: NCI-H226
[40] = tested on: HT-29
[41] = tested on: BT-549
[42] = tested on: MDA-N
[43] = tested on: OVCAR-5
[44] = tested on: HOP-62
[45] = tested on: ACHN
[46] = tested on: SK-MEL-28
[47] = tested on: KM12
[48] = tested on: A498
[49] = tested on: SR
[50] = tested on: SNB-75
[51] = tested on: HCC 2998
[52] = tested on: OVCAR-3
[53] = tested on: SK-OV-3
[54] = tested on: NCI-H23
[55] = tested on: SW-620
[56] = tested on: U-251
[57] = tested on: Malme-3M
[58] = tested on: MDA-MB-231
[59] = tested on: OVCAR-4
[60] = tested on: SNB-78
[61] = tested on: DMS-114
[62] = tested on: M19-MEL
[63] = tested on: DLD-1
[64] = tested on: LXFL 529

In the case of OC(c1ccc(-c2ccccc2)cc1)C(F)(F)c1nc2ccccc2o1 (stereo not given), the GI50 [1] was 25 µM (inactive), the GI50 [2] was 34 µM (inactive) and the GI50 [3] was 54.5 µM (inactive). For the same molecule, the GI50 [4] was > 100 µM (inactive), the GI50 [5] was 16.4 µM (inactive) and the GI50 [6] was 31.2 µM (inactive). For the same molecule, the GI50 [7] was 25.1 µM (inactive), the GI50 [8] was > 79.8 µM (inactive) and the GI50 [9] was > 100 µM (inactive). The GI50 [10] was 15.5 µM (inactive), the GI50 [11] was 65.9 µM (inactive) and the GI50 [12] was 28.5 µM (inactive). For the same molecule, the GI50 [13] was 31.8 µM (inactive), the GI50 [14] was 25.9 µM (inactive) and the GI50 [15] was 18.2 µM (inactive). For the same molecule, the GI50 [16] was 34.8 µM (inactive), the GI50 [17] was 51.3 µM (inactive) and the GI50 [18] was 40.3 µM (inactive). For the same molecule, the GI50 [19] was 40.4 µM (inactive), the GI50 [20] was 29.9 µM (inactive) and the GI50 [21] was 96.4 µM (inactive). The GI50 [22] was > 86.9 µM (inactive), the GI50 [23] was > 74 µM (inactive) and the GI50 [24] was 49 µM (inactive). The GI50 [25] was 50.5 µM (inactive), the GI50 [26] was 65.3 µM (inactive) and the GI50 [27] was 26.5 µM (inactive). For the same molecule, the GI50 [28] was 20.9 µM (inactive), the GI50 [29] was 45.2 µM (inactive) and the GI50 [30] was 37.5 µM (inactive). For the same molecule, the GI50 [31] was > 95.3 µM (inactive), the GI50 [32] was 25.3 µM (inactive) and the GI50 [33] was > 73.3 µM (inactive). For the same molecule, the GI50 [34] was 55 µM (inactive), the GI50 [35] was > 78 µM (inactive) and the GI50 [36] was 38.3 µM (inactive). For the same molecule, the GI50 [37] was > 45 µM (inactive), the GI50 [38] was > 100 µM and the GI50 [39] was > 48.3 µM (inactive). For the same molecule, the GI50 [40] was > 68.1 µM (inactive), the GI50 [41] was > 96.4 µM (inactive) and the GI50 [42] was > 100 µM (inactive). For the same molecule, the GI50 [43] was > 100 µM (inactive), the GI50 [44] was 30.7 µM (inactive) and the GI50 [45] was 56.6 µM (inactive). For the same molecule, the GI50 [46] was > 100 µM (inactive), the GI50 [47] was 36.8 µM (inactive) and the GI50 [48] was 9.12 µM (inactive). For the same molecule, the GI50 [49] was 25.9 µM (inactive), the GI50 [50] was 27.8 µM (inactive) and the GI50 [51] was > 100 µM (inactive). For the same molecule, the GI50 [52] was 35.8 µM (inactive), the GI50 [53] was 37.2 µM (inactive) and the GI50 [54] was 39.9 µM (inactive). The GI50 [55] was > 100 µM (inactive), the GI50 [56] was 30.7 µM (inactive) and the GI50 [57] was 91.8 µM (inactive). For the same molecule, the GI50 [58] was 17.5 µM (inactive) and the GI50 [59] was 18.6 µM (inactive).
In the case of CC(C)c1cccc(C(C)C)c1NC(=O)C(=O)C(C(=O)c1ccc2ccccc2c1)C1OC(=O)c2ccccc21 (stereo not given), the GI50 [1] was > 100 µM (inactive), the GI50 [2] was > 100 µM (inactive) and the GI50 [3] was > 100 µM (inactive). For the same molecule, the GI50 [4] was > 100 µM (inactive), the GI50 [5] was 11 µM (inactive) and the GI50 [6] was > 100 µM (inactive). For the same molecule, the GI50 [7] was 52.4 µM (inactive), the GI50 [60] was > 100 µM (inactive) and the GI50 [9] was > 100 µM (inactive). The GI50 [61] was > 100 µM (inactive), the GI50 [12] was > 100 µM (inactive) and the GI50 [62] was 26.7 µM (inactive). For the same molecule, the GI50 [14] was > 100 µM (inactive), the GI50 [15] was > 100 µM (inactive) and the GI50 [16] was > 10 µM (inactive). The GI50 [17] was > 100 µM (inactive), the GI50 [18] was > 100 µM (inactive) and the GI50 [19] was > 100 µM (inactive). For the same molecule, the GI50 [20] was 27.9 µM (inactive), the GI50 [21] was > 100 µM (inactive) and the GI50 [23] was > 100 µM (inactive). For the same molecule, the GI50 [24] was > 100 µM (inactive), the GI50 [25] was > 100 µM (inactive) and the GI50 [26] was > 100 µM (inactive). For the same molecule, the GI50 [29] was > 100 µM (inactive), the GI50 [30] was > 100 µM (inactive) and the GI50 [31] was > 100 µM (inactive). For the same molecule, the GI50 [63] was > 100 µM (inactive), the GI50 [33] was 24.5 µM (inactive) and the GI50 [34] was 47.8 µM (inactive). The GI50 [35] was > 100 µM (inactive), the GI50 [37] was > 100 µM (inactive) and the GI50 [38] was > 100 µM. The GI50 [39] was 19.7 µM (inactive), the GI50 [40] was > 100 µM (inactive) and the GI50 [43] was 26.9 µM (inactive). For the same molecule, the GI50 [44] was 82.2 µM (inactive), the GI50 [45] was > 100 µM (inactive) and the GI50 [64] was > 100 µM (inactive). For the same molecule, the GI50 [46] was > 100 µM (inactive), the GI50 [47] was > 100 µM (inactive) and the GI50 [48] was 34 µM (inactive). The GI50 [49] was > 100 µM (inactive), the GI50 [51] was > 100 µM (inactive) and the GI50 [52] was > 100 µM (inactive). The GI50 [53] was > 100 µM (inactive), the GI50 [54] was > 100 µM (inactive) and the GI50 [55] was > 100 µM (inactive). For the same molecule, the GI50 [56] was > 100 µM (inactive), the GI50 [57] was > 100 µM (inactive) and the GI50 [59] was > 100 µM (inactive).

Source: ChEMBL document CHEMBL1201862, “PubChem BioAssay data set” (2004)
